The values that follow are results of earlier work, collected in patent US11946927B2, “Process and system for identifying individuals having a high risk of inflammatory bowel disease and a method of treatment” (MUSIDORA BIOTECHNOLOGY LLC, priority 2016, dated 2024).

Molecules are shown by their SMILES.

The test system of this data set is patients with active UC.

On to `Nc1ccc(O)c(C(=O)O)c1` [mesalamine], for which the “efficacy of mesalamine in active UC” value (active UC, first-line conventional clinical treatment) is on record as 30-40%. Further, for the setting “mesalamine used to treat active UC, patients with moderate UC, compared to 80% treated with placebo”, the clinical treatment failures was 60 % of patients.
